For experiment [1], the target named is Proto-oncogene tyrosine-protein kinase Src (Homo sapiens) (UniProt P12931). Briefly: Inhibition of human cSRC assessed as residual activity at 1 uM relative to control.
The target of experiment [2] is T1, NUAK family SNF1-like kinase 1 (Homo sapiens) (UniProt O60285).
T1 sequence (whole entry): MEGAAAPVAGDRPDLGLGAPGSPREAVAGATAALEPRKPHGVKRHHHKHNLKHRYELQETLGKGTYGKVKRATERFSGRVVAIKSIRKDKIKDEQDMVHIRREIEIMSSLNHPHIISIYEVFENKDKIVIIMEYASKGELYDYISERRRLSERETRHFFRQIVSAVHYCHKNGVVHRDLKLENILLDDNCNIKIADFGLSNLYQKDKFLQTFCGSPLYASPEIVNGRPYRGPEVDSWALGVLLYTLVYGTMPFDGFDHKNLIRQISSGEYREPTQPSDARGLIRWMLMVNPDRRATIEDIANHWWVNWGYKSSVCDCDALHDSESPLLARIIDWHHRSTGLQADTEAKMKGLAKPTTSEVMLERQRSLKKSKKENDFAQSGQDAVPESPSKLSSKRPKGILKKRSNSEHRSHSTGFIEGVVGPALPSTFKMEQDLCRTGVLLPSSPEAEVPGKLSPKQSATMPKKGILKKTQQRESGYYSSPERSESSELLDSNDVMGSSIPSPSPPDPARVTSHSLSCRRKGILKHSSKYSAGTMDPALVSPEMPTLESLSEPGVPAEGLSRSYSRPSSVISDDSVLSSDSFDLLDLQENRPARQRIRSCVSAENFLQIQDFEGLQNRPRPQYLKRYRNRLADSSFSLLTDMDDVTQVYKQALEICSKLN
Briefly: Inhibition of human ARK5 assessed as residual activity at 1 uM relative to control.

In experiment [3] the target is T2, Ephrin type-B receptor 1 (Homo sapiens) (UniProt P54762).
T2 sequence (whole entry): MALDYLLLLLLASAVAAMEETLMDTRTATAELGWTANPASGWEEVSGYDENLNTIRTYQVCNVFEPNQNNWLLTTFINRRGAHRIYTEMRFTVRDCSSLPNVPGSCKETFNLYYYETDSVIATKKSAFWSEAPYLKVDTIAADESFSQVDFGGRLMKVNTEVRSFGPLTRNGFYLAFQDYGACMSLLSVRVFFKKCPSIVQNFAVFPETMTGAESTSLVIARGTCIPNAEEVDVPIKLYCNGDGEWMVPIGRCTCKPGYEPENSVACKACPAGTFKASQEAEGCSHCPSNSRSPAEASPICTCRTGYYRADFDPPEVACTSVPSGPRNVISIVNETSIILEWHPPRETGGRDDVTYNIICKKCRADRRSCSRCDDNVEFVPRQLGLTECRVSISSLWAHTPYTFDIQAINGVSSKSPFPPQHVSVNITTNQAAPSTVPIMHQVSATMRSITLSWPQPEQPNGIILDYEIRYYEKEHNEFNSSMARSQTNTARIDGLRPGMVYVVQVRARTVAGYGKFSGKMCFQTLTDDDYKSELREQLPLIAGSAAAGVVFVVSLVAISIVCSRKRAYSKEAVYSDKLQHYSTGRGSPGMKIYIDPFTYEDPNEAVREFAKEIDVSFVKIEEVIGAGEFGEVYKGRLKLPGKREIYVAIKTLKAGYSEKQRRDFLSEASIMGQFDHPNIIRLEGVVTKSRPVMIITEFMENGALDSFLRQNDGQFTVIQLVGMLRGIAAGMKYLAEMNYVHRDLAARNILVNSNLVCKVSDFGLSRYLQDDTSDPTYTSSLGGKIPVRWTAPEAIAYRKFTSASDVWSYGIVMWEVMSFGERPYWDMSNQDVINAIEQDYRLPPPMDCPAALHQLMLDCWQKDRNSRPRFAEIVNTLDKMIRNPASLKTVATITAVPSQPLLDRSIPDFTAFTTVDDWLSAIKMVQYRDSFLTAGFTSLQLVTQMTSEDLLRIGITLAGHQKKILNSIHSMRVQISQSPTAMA
Briefly: Inhibition of human EPHB1 assessed as residual activity at 1 uM relative to control.

Experiment [4] concerns the target Casein kinase I isoform gamma-1 (Homo sapiens) (UniProt Q9HCP0). Briefly: Inhibition of human CK1gamma1 assessed as residual activity at 1 uM relative to control.
In experiment [5] the target is Mitogen-activated protein kinase kinase kinase 9 (Homo sapiens) (UniProt P80192). Put plainly: Inhibition of human MLK1 assessed as residual activity at 1 uM relative to control.
Experiment [6] deals with Receptor-type tyrosine-protein kinase FLT3 (Homo sapiens) (UniProt P36888). Put plainly: Inhibition of human FLT3 assessed as residual activity at 1 uM relative to control.
In experiment [7] the target is T3, Serine/threonine-protein kinase 17A (Homo sapiens) (UniProt Q9UEE5).
T3 sequence (whole entry): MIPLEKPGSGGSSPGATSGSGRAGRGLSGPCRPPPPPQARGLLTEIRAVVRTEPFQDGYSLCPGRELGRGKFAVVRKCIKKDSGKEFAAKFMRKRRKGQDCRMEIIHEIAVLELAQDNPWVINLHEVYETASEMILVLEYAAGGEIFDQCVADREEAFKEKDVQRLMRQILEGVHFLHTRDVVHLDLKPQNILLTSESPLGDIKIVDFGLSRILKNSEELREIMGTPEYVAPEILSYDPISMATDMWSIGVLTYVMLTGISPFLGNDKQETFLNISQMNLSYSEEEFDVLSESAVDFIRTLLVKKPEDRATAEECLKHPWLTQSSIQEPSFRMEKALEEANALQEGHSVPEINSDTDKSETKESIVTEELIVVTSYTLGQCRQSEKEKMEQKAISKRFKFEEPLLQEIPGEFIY
Briefly: Inhibition of human DRAK1 assessed as residual activity at 1 uM relative to control.

Experiment [8] deals with T4, TGF-beta receptor type-1 (Homo sapiens) (UniProt P36897).
T4 sequence (whole entry): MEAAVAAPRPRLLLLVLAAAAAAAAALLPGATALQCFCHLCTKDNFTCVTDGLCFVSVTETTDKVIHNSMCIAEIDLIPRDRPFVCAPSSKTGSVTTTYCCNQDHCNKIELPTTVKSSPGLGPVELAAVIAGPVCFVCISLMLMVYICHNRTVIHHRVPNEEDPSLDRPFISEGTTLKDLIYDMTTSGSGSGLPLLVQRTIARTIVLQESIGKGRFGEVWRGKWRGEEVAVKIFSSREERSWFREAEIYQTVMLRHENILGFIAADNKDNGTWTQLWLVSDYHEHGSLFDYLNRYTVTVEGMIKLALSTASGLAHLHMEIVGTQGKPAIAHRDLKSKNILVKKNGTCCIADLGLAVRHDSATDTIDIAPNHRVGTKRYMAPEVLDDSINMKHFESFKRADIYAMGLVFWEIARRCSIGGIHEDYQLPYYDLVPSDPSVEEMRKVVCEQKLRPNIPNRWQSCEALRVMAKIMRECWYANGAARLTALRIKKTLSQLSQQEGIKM
Briefly: Inhibition of human TGFBR1 assessed as residual activity at 1 uM relative to control.

The target of experiment [9] is Serine/threonine-protein kinase 10 (Homo sapiens) (UniProt O94804). Briefly: Inhibition of human LOK assessed as residual activity at 1 uM relative to control.
Sequence of Serine/threonine-protein kinase 10 (Homo sapiens) (O94804 whole entry, looked up): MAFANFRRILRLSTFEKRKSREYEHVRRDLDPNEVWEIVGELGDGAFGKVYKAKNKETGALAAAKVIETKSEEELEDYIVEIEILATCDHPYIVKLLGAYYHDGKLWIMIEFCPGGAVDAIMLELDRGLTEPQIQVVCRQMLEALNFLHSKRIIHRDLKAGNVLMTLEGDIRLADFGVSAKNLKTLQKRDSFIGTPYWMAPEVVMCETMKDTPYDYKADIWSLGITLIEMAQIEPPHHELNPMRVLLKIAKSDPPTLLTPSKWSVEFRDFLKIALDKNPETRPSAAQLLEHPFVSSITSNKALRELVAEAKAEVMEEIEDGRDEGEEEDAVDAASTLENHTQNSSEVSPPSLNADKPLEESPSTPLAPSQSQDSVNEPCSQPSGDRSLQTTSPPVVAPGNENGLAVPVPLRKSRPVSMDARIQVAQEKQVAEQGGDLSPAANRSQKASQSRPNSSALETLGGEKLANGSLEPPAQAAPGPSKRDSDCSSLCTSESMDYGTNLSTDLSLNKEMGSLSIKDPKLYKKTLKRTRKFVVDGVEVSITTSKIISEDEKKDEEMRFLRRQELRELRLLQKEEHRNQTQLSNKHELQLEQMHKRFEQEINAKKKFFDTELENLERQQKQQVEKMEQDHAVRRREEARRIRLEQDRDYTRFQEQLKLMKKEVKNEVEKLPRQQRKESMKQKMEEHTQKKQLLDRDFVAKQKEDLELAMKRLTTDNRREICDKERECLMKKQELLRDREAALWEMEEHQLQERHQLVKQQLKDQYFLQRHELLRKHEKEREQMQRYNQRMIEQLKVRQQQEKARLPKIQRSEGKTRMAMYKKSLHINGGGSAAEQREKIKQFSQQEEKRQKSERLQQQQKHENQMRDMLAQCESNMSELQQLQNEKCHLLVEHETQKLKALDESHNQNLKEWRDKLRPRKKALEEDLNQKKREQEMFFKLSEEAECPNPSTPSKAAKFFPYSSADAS

Sequence of Casein kinase I isoform gamma-1 (Homo sapiens) (Q9HCP0 whole entry, looked up, canonical isoform): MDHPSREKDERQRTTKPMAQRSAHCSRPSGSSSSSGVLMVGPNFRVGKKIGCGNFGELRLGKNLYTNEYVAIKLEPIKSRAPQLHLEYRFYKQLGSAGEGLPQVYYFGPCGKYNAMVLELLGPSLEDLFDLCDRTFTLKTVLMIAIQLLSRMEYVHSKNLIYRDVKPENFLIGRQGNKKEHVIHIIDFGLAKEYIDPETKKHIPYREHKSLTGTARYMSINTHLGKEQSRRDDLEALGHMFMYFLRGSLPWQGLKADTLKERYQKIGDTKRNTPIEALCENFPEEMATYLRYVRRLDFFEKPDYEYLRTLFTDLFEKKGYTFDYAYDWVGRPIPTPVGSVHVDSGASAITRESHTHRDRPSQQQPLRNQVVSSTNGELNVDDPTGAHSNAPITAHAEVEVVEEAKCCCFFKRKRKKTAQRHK
Sequence of Proto-oncogene tyrosine-protein kinase Src (Homo sapiens) (P12931 2-536 limits assumed): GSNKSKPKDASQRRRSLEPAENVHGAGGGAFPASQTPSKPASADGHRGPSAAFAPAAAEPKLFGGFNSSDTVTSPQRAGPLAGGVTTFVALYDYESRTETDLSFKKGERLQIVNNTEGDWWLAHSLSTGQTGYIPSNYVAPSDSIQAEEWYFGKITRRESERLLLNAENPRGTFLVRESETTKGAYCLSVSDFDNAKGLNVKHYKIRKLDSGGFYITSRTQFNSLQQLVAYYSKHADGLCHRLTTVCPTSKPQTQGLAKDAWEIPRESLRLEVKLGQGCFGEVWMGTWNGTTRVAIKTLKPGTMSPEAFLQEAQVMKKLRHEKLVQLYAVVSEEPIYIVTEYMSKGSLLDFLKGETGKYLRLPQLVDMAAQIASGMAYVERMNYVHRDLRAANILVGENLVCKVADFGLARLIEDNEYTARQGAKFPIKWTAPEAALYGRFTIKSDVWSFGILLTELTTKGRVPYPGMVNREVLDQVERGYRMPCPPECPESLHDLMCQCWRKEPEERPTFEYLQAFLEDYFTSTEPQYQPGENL
Sequence of Mitogen-activated protein kinase kinase kinase 9 (Homo sapiens) (P80192 whole entry, looked up): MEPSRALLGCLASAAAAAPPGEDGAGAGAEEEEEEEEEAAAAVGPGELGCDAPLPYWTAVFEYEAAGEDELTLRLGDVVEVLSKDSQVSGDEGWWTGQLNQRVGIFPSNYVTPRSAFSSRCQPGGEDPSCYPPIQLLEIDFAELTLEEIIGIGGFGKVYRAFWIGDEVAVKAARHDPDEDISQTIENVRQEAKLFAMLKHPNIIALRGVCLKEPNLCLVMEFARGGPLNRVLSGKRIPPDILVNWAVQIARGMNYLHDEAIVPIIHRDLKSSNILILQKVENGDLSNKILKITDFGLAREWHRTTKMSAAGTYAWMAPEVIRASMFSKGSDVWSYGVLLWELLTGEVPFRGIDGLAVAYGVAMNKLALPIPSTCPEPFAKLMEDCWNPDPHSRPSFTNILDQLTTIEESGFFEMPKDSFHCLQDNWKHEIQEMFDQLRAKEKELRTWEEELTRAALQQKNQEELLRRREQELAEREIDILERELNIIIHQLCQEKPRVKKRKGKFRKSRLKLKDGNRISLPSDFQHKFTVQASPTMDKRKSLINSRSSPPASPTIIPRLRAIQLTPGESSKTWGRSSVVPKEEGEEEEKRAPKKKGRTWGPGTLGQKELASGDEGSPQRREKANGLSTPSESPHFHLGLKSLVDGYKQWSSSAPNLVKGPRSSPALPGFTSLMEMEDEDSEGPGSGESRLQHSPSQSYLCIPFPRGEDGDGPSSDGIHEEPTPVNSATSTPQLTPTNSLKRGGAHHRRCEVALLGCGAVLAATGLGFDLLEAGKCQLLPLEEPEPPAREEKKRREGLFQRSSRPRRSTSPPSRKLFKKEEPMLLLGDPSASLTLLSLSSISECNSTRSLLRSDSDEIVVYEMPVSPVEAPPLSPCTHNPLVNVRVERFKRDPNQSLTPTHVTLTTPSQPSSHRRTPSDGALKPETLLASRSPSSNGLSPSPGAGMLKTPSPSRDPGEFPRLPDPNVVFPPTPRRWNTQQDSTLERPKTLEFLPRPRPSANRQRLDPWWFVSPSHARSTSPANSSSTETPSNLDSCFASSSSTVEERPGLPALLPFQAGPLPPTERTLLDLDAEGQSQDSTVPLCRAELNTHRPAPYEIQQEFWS
Sequence of Receptor-type tyrosine-protein kinase FLT3 (Homo sapiens) (P36888 whole entry): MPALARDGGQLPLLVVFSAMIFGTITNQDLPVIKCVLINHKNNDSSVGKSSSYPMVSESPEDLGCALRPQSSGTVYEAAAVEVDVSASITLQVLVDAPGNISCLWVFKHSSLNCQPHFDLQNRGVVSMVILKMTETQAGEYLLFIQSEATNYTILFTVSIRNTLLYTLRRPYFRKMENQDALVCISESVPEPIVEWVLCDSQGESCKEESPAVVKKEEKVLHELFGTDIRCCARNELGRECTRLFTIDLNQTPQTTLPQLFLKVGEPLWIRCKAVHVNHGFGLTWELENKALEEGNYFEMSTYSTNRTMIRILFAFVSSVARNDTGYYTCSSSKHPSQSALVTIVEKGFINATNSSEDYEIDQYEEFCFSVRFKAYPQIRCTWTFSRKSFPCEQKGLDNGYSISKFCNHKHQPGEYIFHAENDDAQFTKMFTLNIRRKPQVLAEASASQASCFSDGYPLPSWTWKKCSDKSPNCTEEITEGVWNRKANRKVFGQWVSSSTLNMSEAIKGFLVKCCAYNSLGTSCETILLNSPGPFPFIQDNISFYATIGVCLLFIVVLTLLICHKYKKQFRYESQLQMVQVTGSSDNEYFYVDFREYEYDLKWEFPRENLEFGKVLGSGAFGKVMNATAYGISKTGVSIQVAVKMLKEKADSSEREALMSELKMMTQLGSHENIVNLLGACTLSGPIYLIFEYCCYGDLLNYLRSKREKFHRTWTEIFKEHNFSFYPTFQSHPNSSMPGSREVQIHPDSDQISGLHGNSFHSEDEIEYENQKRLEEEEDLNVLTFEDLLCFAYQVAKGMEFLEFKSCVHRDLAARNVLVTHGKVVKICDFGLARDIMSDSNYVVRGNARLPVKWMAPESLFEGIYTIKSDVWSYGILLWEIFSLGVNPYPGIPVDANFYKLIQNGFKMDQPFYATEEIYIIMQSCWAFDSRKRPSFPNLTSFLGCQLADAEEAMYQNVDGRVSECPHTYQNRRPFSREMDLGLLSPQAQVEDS

As to `COc1ccc(-c2nc3cc(-c4csc(C(=O)NCC(C)(C)C)c4)cnc3[nH]2)cc1`, the Activity in experiment [1] was found to be 85%; in [2], 79%; in experiment [3], 74%; in experiment [4] it was 65%; in experiment [5], 37%; in [6], 30%. The Activity in [7] was 8%; in [8], 111%; in [9] it was 102%.
`COc1ccc(-c2nc3cc(-c4csc(C(=O)NCCC(C)C)c4)cnc3[nH]2)cc1`: the Activity in [1] is 47%; in experiment [2], 76%; in experiment [3], 76%; in [4], 29%; in [5], 23%; in [6], 18%. Besides, the Activity came out at 7% in [7], 85% in experiment [8] and 97% in experiment [9].
As to `COc1ccc(-c2nc3cc(-c4csc(C(=O)NCC(C)C)c4)cnc3[nH]2)cc1`, the Activity in experiment [1] came out at 50%; in experiment [2] it was 68%; in experiment [3] it was 72%; in [4] it was 44%; in experiment [5], 30%; in experiment [6] it was 6%. The Activity in experiment [7] turned out to be 4%; in experiment [8], 104%; in experiment [9] it was 100%.

Values taken from ChEMBL document CHEMBL3124838, “Discovery of 6-aryl-azabenzimidazoles that inhibit the TBK1/IKK-ε kinases” (Bioorg Med Chem Lett, 2014).
